How the values were obtained:
hNAMPT protein = hNAMPT protein (Homo sapiens (Human), UniProt P43490); test: NAMPT enzyme assay (TR-FRET/HTRF with BodiPY ligand); type: binding; conditions: for inhibition at 1 µM: NAMPT inhibition at compound concentration 1 μM; for IC50: NAMPT inhibition, IC50 range class
Outline: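 Ligand displacement by TR-FRET: BodiPY emission (520 nm) over terbium (486 nm) after 320 nm excitation. Compound, BodiPY ligand, hNAMPT and anti-6His-Tb incubated 1 h at room temperature, dark, at pH 7.5. Percent inhibition computed versus DMSO; concentration-response curves fitted for IC50.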

PC3 cells = test: PC3 growth inhibition (Cell-titer glo, 72 hours); type: cell-based; conditions: Homo sapiens, PC-3, 72 h, read-out: Percent Viability, PC3 cells, compound concentration 1.667 μM, 72 hours
Outline: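 After 72 h compound treatment in AIM serum-free medium (37 °C, 5% CO2), viability of overnight-plated PC3 cells (8×10^4 cells/ml, RPMI1640-maintained) is read by CellTiter-Glo luminescence versus DMSO. Curves give GI50, LD50 or single-concentration % remaining viability.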

hNAMPT protein, sequence (P43490 whole entry): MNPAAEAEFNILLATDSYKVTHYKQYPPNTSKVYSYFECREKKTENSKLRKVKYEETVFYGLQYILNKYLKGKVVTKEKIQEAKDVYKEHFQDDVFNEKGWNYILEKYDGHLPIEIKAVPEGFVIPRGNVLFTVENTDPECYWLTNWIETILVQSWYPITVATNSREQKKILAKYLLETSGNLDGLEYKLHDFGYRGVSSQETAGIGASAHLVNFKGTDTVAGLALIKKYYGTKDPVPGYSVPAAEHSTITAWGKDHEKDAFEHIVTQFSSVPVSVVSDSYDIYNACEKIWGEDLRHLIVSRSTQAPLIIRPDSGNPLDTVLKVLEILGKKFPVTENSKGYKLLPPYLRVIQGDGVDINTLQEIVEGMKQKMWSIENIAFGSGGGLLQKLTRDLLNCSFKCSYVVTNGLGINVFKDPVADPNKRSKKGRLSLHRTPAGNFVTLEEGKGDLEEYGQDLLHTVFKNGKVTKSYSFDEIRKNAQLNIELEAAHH

SMILES: CCCc1nc(-c2ccc(Cl)cc2)nc2cc(C(=O)NCCc3cncn3C)ccc12 [Compound I-1, 2-(4-chlorophenyl)-N-[2-(1-methyl-1H-imidazol-5-yl)ethyl]-4-propylquinazoline-7-carboxamide]
- inhibition at 1 µM (hNAMPT protein; read-out: Percent Inhibition): > 99%
- IC50 (hNAMPT protein): < 10 nM
- viability at 1.667 µM (PC3 cells): 2%

SMILES: COCCOc1cc(-c2ccc(F)cc2)nc2cc(C(=O)NCCCc3cn[nH]n3)ccc12 [Compound I-109, 2-(4-fluorophenyl)-4-(2-methoxyethoxy)-N-[3-(2H-1,2,3-triazol-4-yl)propyl]quinoline-7-carboxamide]
- inhibition at 1 µM (hNAMPT protein; read-out: Percent Inhibition): 100%
- IC50 (hNAMPT protein): 10 to 50 nM
- viability at 1.667 µM (PC3 cells): 2%

SMILES: CCOc1cc(C2CCOCC2)nc2cc(C(=O)NCCCc3nnc[nH]3)ccc12 [Compound I-135, 4-ethoxy-2-(tetrahydro-2H-pyran-4-yl)-N-[3-(4H-1,2,4-triazol-3-yl)propyl]quinoline-7-carboxamide]
- inhibition at 1 µM (hNAMPT protein; read-out: Percent Inhibition): 71%
- IC50 (hNAMPT protein): > 100 nM
- viability at 1.667 µM (PC3 cells): 4%

SMILES: CCCc1nc(-c2ccc(Cl)s2)nc2cc(C(=O)NCCCc3ncc[nH]3)ccc12 [Compound I-24, 2-(5-chloro-2-thienyl)-N-[3-(1H-imidazol-2-yl)propyl]-4-propylquinazoline-7-carboxamide]
- inhibition at 1 µM (hNAMPT protein; read-out: Percent Inhibition): > 99%
- IC50 (hNAMPT protein): < 10 nM
- viability at 1.667 µM (PC3 cells): 1%

SMILES: CCOc1cc(-c2cc(F)ccc2OC)nc2cc(C(=O)NCCc3nnc[nH]3)ccc12 [Compound I-182, 4-ethoxy-2-(5-fluoro-2-methoxyphenyl)-N-[2-(4H-1,2,4-triazol-3-yl)ethyl]quinoline-7-carboxamide]
- inhibition at 1 µM (hNAMPT protein; read-out: Percent Inhibition): 77%
- IC50 (hNAMPT protein): > 100 nM
- viability at 1.667 µM (PC3 cells): 5%

SMILES: O=C(NCCCc1ncc[nH]1)c1ccc2c(-c3ccc(F)cc3)nc(-c3ccc(Cl)cc3)nc2c1 [Compound I-57, 2-(4-Chlorophenyl)-4-(4-fluorophenyl)-N-[3-(1H-imidazol-2-yl)propyl]quinazoline-7-carboxamide]
- inhibition at 1 µM (hNAMPT protein; read-out: Percent Inhibition): 99%
- IC50 (hNAMPT protein): < 10 nM
- viability at 1.667 µM (PC3 cells): 1%

SMILES: CCOc1cc(-c2ccc(F)cc2)nc2cc(C(=O)NCc3nc4ccccc4[nH]3)ccc12 [Compound I-54, N-(1H-benzimidazol-2-ylmethyl)-4-ethoxy-2-(4-fluorophenyl)quinoline-7-carboxamide]
- inhibition at 0.33 µM (hNAMPT protein; NAMPT inhibition at compound concentration 0.33 μM, read-out: Percent Inhibition): 96%
- IC50 (hNAMPT protein): < 10 nM
- viability at 1.667 µM (PC3 cells): 94%

SMILES: CCOc1cc(-c2ccc(OC)nc2)nc2cc(C(=O)NCCc3cn[nH]c3C)ccc12 [Compound I-153, 4-ethoxy-2-(6-methoxypyridin-3-yl)-N-[2-(5-methyl-1H-pyrazol-4-yl)ethyl]quinoline-7-carboxamide]
- inhibition at 1 µM (hNAMPT protein; read-out: Percent Inhibition): 98%
- IC50 (hNAMPT protein): 10 to 50 nM
- viability at 1.667 µM (PC3 cells): 2%

SMILES: CCOc1cc(-c2ccnc(OC)c2)nc2cc(C(=O)NCCCc3cnn[nH]3)ccc12 [Compound I-116, 4-ethoxy-2-(2-methoxypyridin-4-yl)-N-[3-(1H-1,2,3-triazol-5-yl)propyl]quinoline-7-carboxamide]
- inhibition at 1 µM (hNAMPT protein; read-out: Percent Inhibition): 98%
- IC50 (hNAMPT protein): < 10 nM
- viability at 1.667 µM (PC3 cells): 2%

SMILES: CCCc1cc(-c2ccc(F)cc2)nc2cc(C(=O)NCCCc3ncc[nH]3)ccc12 [Compound I-163, 2-(4-fluorophenyl)-N-[3-(1H-imidazol-2-yl)propyl]-4-propylquinoline-7-carboxamide]
- inhibition at 1 µM (hNAMPT protein; read-out: Percent Inhibition): 97%
- IC50 (hNAMPT protein): < 10 nM
- viability at 1.667 µM (PC3 cells): 2%

SMILES: COCCOc1cc(-c2ccc(F)cc2)nc2cc(C(=O)NCCc3c[nH]nc3C)ccc12 [Compound I-126, 2-(4-fluorophenyl)-4-(2-methoxyethoxy)-N-[2-(3-methyl-1H-pyrazol-4-yl)ethyl]quinoline-7-carboxamide]
- inhibition at 1 µM (hNAMPT protein; read-out: Percent Inhibition): 91%
- IC50 (hNAMPT protein): 50 to 100 nM
- viability at 1.667 µM (PC3 cells): 2%

SMILES: CCOc1cc(-c2ccc(F)cc2)nc2cc(C(=O)NCCCc3nnc[nH]3)ccc12 [Compound I-5, 4-ethoxy-2-(4-fluorophenyl)-N-[3-(4H-1,2,4-triazol-3-yl)propyl]quinoline-7-carboxamide]
- inhibition at 1 µM (hNAMPT protein; read-out: Percent Inhibition): 100%
- IC50 (hNAMPT protein): < 10 nM
- viability at 1.667 µM (PC3 cells): 1%

SMILES: CCOc1cc(-c2ccc(F)cc2)nc2cc(C(=O)N[C@H]3C[C@@H](c4nnc[nH]4)C3)ccc12 [Compound I-222, 4-ethoxy-2-(4-fluorophenyl)-N-[cis-3-(4H-1,2,4-triazol-3-yl)cyclobutyl]quinoline-7-carboxamide]
- inhibition at 1 µM (hNAMPT protein; read-out: Percent Inhibition): 96%
- IC50 (hNAMPT protein): 10 to 50 nM
- viability at 1.667 µM (PC3 cells): 4%

SMILES: CCOc1cc(-c2cccc(OC(F)(F)F)c2)nc2cc(C(=O)NCCCc3nnc[nH]3)ccc12 [Compound I-216, 4-ethoxy-N-[3-(4H-1,2,4-triazol-3-yl)propyl]-2-[3-(trifluoromethoxy)phenyl]quinoline-7-carboxamide]
- inhibition at 1 µM (hNAMPT protein; read-out: Percent Inhibition): 92%
- IC50 (hNAMPT protein): 50 to 100 nM
- viability at 1.667 µM (PC3 cells): 1%

SMILES: O=C(NCCCc1ncc[nH]1)c1ccc2c(Cc3ccccc3)nc(-c3ccc(Cl)cc3)nc2c1 [Compound I-53, 4-benzyl-2-(4-chlorophenyl)-N-[3-(1H-imidazol-2-yl)propyl]quinazoline-7-carboxamide]
- inhibition at 1 µM (hNAMPT protein; read-out: Percent Inhibition): 93%
- IC50 (hNAMPT protein): 10 to 50 nM
- viability at 1.667 µM (PC3 cells): 4%

SMILES: CCOc1cc(-c2ccc(F)cc2)nc2cc(C(=O)NCCc3ccc(C#N)cc3)ccc12 [Compound I-47, N-[2-(4-cyanophenyl)ethyl]-4-ethoxy-2-(4-fluorophenyl)quinoline-7-carboxamide]
- inhibition at 1 µM (hNAMPT protein; read-out: Percent Inhibition): 47%
- IC50 (hNAMPT protein): < 10 nM
- viability at 1.667 µM (PC3 cells): 99%

SMILES: CCOc1cc(-c2ccc(C)nc2)nc2cc(C(=O)NCCCc3cnn[nH]3)ccc12 [Compound I-110, 4-ethoxy-2-(6-methylpyridin-3-yl)-N-[3-(1H-1,2,3-triazol-5-yl)propyl]quinoline-7-carboxamide]
- inhibition at 1 µM (hNAMPT protein; read-out: Percent Inhibition): 100%
- IC50 (hNAMPT protein): < 10 nM
- viability at 1.667 µM (PC3 cells): 2%

SMILES: CC(C)Oc1nc(-c2ccc(F)cc2)nc2cc(C(=O)NCCCc3ncc[nH]3)ccc12 [Compound I-36, 2-(4-fluorophenyl)-N-[3-(1H-imidazol-2-yl)propyl]-4-isopropoxyquinazoline-7-carboxamide]
- inhibition at 1 µM (hNAMPT protein; read-out: Percent Inhibition): > 99%
- IC50 (hNAMPT protein): < 10 nM
- viability at 1.667 µM (PC3 cells): 2%

SMILES: CCNc1cc(-c2ccc(F)cc2)nc2cc(C(=O)NCCCc3nnc[nH]3)ccc12 [Compound I-151, 4-(ethylamino)-2-(4-fluorophenyl)-N-[3-(4H-1,2,4-triazol-3-yl)propyl]quinoline-7-carboxamide]
- inhibition at 1 µM (hNAMPT protein; read-out: Percent Inhibition): 61%
- IC50 (hNAMPT protein): > 100 nM
- viability at 1.667 µM (PC3 cells): 3%

SMILES: CCOc1cc(-c2ccc(OC)nc2)nc2cc(C(=O)NCc3nc4cnccc4[nH]3)ccc12 [Compound I-193, 4-ethoxy-N-(1H-imidazo[4,5-c]pyridin-2-ylmethyl)-2-(6-methoxypyridin-3-yl)quinoline-7-carboxamide]
- inhibition at 1 µM (hNAMPT protein; read-out: Percent Inhibition): > 99%
- IC50 (hNAMPT protein): < 10 nM
- viability at 1.667 µM (PC3 cells): 3%

SMILES: CCOc1cc(-c2cccnc2C)nc2cc(C(=O)NCCCc3nnc[nH]3)ccc12 [Compound I-213, 4-ethoxy-2-(2-methylpyridin-3-yl)-N-[3-(4H-1,2,4-triazol-3-yl)propyl]quinoline-7-carboxamide]
- inhibition at 1 µM (hNAMPT protein; read-out: Percent Inhibition): 87%
- IC50 (hNAMPT protein): > 100 nM
- viability at 1.667 µM (PC3 cells): 1%

SMILES: CCOc1cc(C2=CCOCC2)nc2cc(C(=O)NCCCc3nnc[nH]3)ccc12 [Compound I-140, 2-(3,6-dihydro-2H-pyran-4-yl)-4-ethoxy-N-[3-(4H-1,2,4-triazol-3-yl)propyl]quinoline-7-carboxamide]
- inhibition at 1 µM (hNAMPT protein; read-out: Percent Inhibition): 91%
- IC50 (hNAMPT protein): 50 to 100 nM
- viability at 1.667 µM (PC3 cells): 2%

From patent US10323018B2 (Millennium Pharmaceuticals, Inc., priority 2015, dated 2019)
